From patent US20050197350A1, “Novel quinoline, tetrahydroquinazoline, and pyrimidine derivatives and methods of treatment related to the use thereof” (TAISHO PHARMACEUTICAL CO., LTD., priority 2003, published 2005) come the findings set out here.

This assay has as its system MCH receptors. Put plainly: MCH receptor activity class (method not given).
[1] abbreviates: MCH receptor, class by percent of control at 10^-7 M or IC50.
Setting [2] is: class by percent of control at 10^-7 M or IC50.
[3] abbreviates: activity class 1-3: percent of control at 10^-7 M or IC50.
[4] abbreviates: activity class per percent of control at 10^-7 M or IC50.
Setting [5] is: MCH receptor activity class 1-3 (percent of control at 10^-7 M or IC50).
[6] abbreviates: class by percent of control at 10^−7 M or IC50.
The mark [7] stands for this setting: class 1-3 by percent of control at 10^-7 M or IC50.

Each structure is given as a SMILES string. Like-named read-outs stand apart in the source and are kept apart here.

Regarding `COc1cc(C(=O)N[C@H]2CC[C@@H](Nc3cc(N(C)C)c4ccccc4n3)CC2)cc(OC)c1OC` [compound 115], under setting [1], the class is recorded as 3 (Class 3 The value of percent of control at 10^−7 M was more than 60% or the value of IC50 was more than 200 nM.).

Regarding `COc1ccc(OC)c(CCNC(=S)N[C@H]2CC[C@@H](Nc3nc4c(c(N(C)C)n3)CCCC4)CC2)c1` [compound 2034], the class under setting [1] is on record as 3 (Class 3 The value of percent of control at 10^−7 M was more than 60% or the value of IC50 was more than 200 nM.).

As for `CN(C)c1ccnc(N[C@H]2CC[C@@H](NC(=O)c3ccc(OC(F)(F)F)c(Cl)c3)CC2)n1` [compound 362], the class under setting [2] is recorded as 3 (Class 3 The value of percent of control at 10^−7 M was more than 60% or the value of IC50 was more than 200 nM.).

Take `CN(C)c1ccnc(N[C@H]2CC[C@@H](CNC(=O)c3ccc(Cl)c(Cl)c3)CC2)n1` [compound 376]: under setting [2], the class is given as 2 (Class 2: The value of percent of control at 10^−7 M was from 40% to 60% or the value of IC′50 was from 50 nM to 200 nM.).

In the case of `CN(C)c1cc(NC2CCC(NC(=O)OCc3ccccc3)CC2)nc2ccccc12` (centres unmarked) [compound 1551], the class under setting [3] was 3 (Class 3 The value of percent of control at 10^−7 M was more than 60% or the value of IC50 was more than 200 nM.).

As to `Cc1c(C(=O)N[C@H]2CC[C@@H](Nc3nc4c(c(N(C)C)n3)CCCC4)CC2)cc(-c2ccccc2)n1-c1ccccc1` [compound 1027], the class under setting [4] is recorded as 2 (Class 2: The value of percent of control at 10^−7 M was from 40% to 60% or the value of IC′50 was from 50 nM to 200 nM.).

`Cc1c(NC(=O)NC[C@H]2CC[C@@H](Nc3cc(N(C)C)c4ccccc4n3)CC2)cccc1[N+](=O)[O-]` [compound 2381, N-[(cis-4-{[4-(dimethylamino)quinolin-2-yl]amino}cyclohexyl)methyl]-N′-(2-methyl-3-nitrophenyl)urea]: under setting [5], the class is recorded as 2 (Class 2: The value of percent of control at 10^−7 M was from 40% to 60% or the value of IC′50 was from 50 nM to 200 nM.).

For the compound `Cc1nc(N[C@H]2CC[C@@H](NC(=O)c3cc(O)nc(O)c3)CC2)nc(N(C)C)c1C` [compound 2825], the class under setting [6] was 3 (Class 3 The value of percent of control at 10^−7 M was more than 60% or the value of IC50 was more than 200 nM.).

In the case of `CN(C)c1nc(N[C@H]2CC[C@@H](NC(=O)c3ccccc3OC(F)(F)F)CC2)nc2c1CCCC2` [compound 554], under setting [7], the class is on record as 3 (Class 3 The value of percent of control at 10^−7 M was more than 60% or the value of IC50 was more than 200 nM.).

With `COc1cc(C(=O)N[C@H]2CC[C@@H](Nc3cc(C)c4ccccc4n3)CC2)cc(OC)c1OC` [Example 2552, 3,4,5-trimethoxy-N-{cis-4-[(4-methylquinolin-2-yl)amino]cyclohexyl}benzamide], the class is 1.

In the case of `CN(C)c1ccnc(N[C@H]2CC[C@@H](CNC(=O)Nc3cc(F)cc(F)c3)CC2)n1` [compound 2449], the class under setting [5] is recorded as 1 (Class 1: The value of percent of control at 10^−7 M was less than 40% or the value of IC50 was less than 50 nM.).

In the case of `COCCOC(=O)NC[C@H]1CC[C@@H](Nc2cc(N(C)C)c3ccccc3n2)CC1` [compound 1565], under setting [3], the class is listed as 3 (Class 3 The value of percent of control at 10^−7 M was more than 60% or the value of IC50 was more than 200 nM.).

`CN(C)c1ccnc(N[C@H]2CC[C@@H](NC(=O)CCC(=O)c3cccs3)CC2)n1` [compound 885]: the class under setting [2] is 3 (Class 3 The value of percent of control at 10^−7 M was more than 60% or the value of IC50 was more than 200 nM.).

As to `CN(C)c1nc(N[C@H]2CC[C@@H](NC(=O)Cc3cccc(Oc4ccccc4)c3)CC2)nc2c1CCCC2` [compound 1003], the class under setting [4] is 2 (Class 2: The value of percent of control at 10^−7 M was from 40% to 60% or the value of IC′50 was from 50 nM to 200 nM.).

For the compound `Cc1cnc(NC[C@H]2CC[C@@H](NC(=O)c3cc(Cl)cc(Cl)c3)CC2)nc1N(C)C` [compound 2728, 3,5-dichloro-N-[cis-4-({[4-(dimethylamino)-5-methylpyrimidin-2-yl]amino}methyl)cyclohexyl]benzamide], under setting [6], the class is 2 (Class 2: The value of percent of control at 10^−7 M was from 40% to 60% or the value of IC′50 was from 50 nM to 200 nM.).

In the case of `Cc1cnc(N[C@H]2CC[C@@H](C(=O)N[C@H](C)c3ccccc3)CC2)nc1N(C)C` [compound 2771, cis-4-{[4-(dimethylamino)-5-methylpyrimidin-2-yl]amino}-N-[(1R)-1-phenylethyl]cyclohexanecarboxamide], the class under setting [6] is 2 (Class 2: The value of percent of control at 10^−7 M was from 40% to 60% or the value of IC′50 was from 50 nM to 200 nM.).

On to `CCOc1ccccc1CNC[C@H]1CC[C@@H](Nc2nc3c(c(N(C)C)n2)CCCC3)CC1` [compound 1365], for which the class under setting [2] was 2 (Class 2: The value of percent of control at 10^−7 M was from 40% to 60% or the value of IC′50 was from 50 nM to 200 nM.).

For `CN(C)c1nc(N[C@H]2CC[C@@H](NC(=O)Nc3ccccc3Oc3ccccc3)CC2)nc2c1CCCC2` [compound 1864], the class under setting [2] is 3 (Class 3 The value of percent of control at 10^−7 M was more than 60% or the value of IC50 was more than 200 nM.).

For the compound `Cc1cnc(N[C@H]2CC[C@@H](NCc3ccc(Cl)c(Cl)c3)CC2)nc1N(C)C` [compound 3002], the class under setting [6] was 3 (Class 3 The value of percent of control at 10^−7 M was more than 60% or the value of IC50 was more than 200 nM.).

On to `CCCc1c(CNC[C@H]2CC[C@@H](Nc3cc(N(C)C)c4ccccc4n3)CC2)cnn1-c1ccc(Cl)cc1` [compound 1479], for which the class under setting [2] was 1 (Class 1: The value of percent of control at 10^−7 M was less than 40% or the value of IC50 was less than 50 nM.).

With `Cc1ccc(C(=O)N[C@H]2CC[C@@H](Nc3nccc(N(C)C)n3)CC2)cc1[N+](=O)[O-]` [compound 261, N-(cis-4-{[4-(dimethylamino)pyrimidin-2-yl]amino}cyclohexyl)-4-methyl-3-nitrobenzamide], the class under setting [2] is recorded as 2 (Class 2: The value of percent of control at 10^−7 M was from 40% to 60% or the value of IC′50 was from 50 nM to 200 nM.).

Consider `COc1cccc(OC)c1CN[C@H]1CC[C@@H](Nc2cc(N(C)C)c3ccccc3n2)CC1` [compound 1085], for which, under setting [4], the class was 3 (Class 3 The value of percent of control at 10^−7 M was more than 60% or the value of IC50 was more than 200 nM.).

Turning to `CN(C)c1nc(N[C@H]2CC[C@@H](CNC(=O)Nc3ccccc3C(C)(C)C)CC2)nc2c1CCCC2` [compound 2476], under setting [5], the class is reported as 2 (Class 2: The value of percent of control at 10^−7 M was from 40% to 60% or the value of IC′50 was from 50 nM to 200 nM.).

`Cc1cccc(C(=O)N[C@H]2CC[C@@H](Nc3nc4c(c(N(C)C)n3)CCCC4)CC2)c1` [compound 486]: the class under setting [7] was 1 (Class 1: The value of percent of control at 10^−7 M was less than 40% or the value of IC50 was less than 50 nM.).

On to `CN(C)c1nc(N[C@H]2CC[C@@H](CNCc3ccc(O)cc3)CC2)nc2c1CCCC2` [compound 1396], for which the class under setting [2] is 3 (Class 3 The value of percent of control at 10^−7 M was more than 60% or the value of IC50 was more than 200 nM.).

Turning to `Cc1cc(C(=O)N[C@H]2CC[C@@H](Nc3nc(C)c(C)c(N(C)C)n3)CC2)no1` [compound 2828, N-(cis-4-{[4-(dimethylamino)-5,6-dimethylpyrimidin-2-yl]amino}cyclohexyl)-5-methylisoxazole-3-carboxamide], the class under setting [6] is given as 2 (Class 2: The value of percent of control at 10^−7 M was from 40% to 60% or the value of IC′50 was from 50 nM to 200 nM.).

Consider `COc1ccc2[nH]cc(CNC[C@H]3CC[C@@H](Nc4cc(N(C)C)c5ccccc5n4)CC3)c2c1` [compound 1127], for which, under setting [4], the class was 3 (Class 3 The value of percent of control at 10^−7 M was more than 60% or the value of IC50 was more than 200 nM.).

As to `CCSC(C(=O)N[C@H]1CC[C@@H](Nc2cc(N(C)C)c3ccccc3n2)CC1)(c1ccccc1)c1ccccc1` [compound 734], under setting [2], the class is on record as 3 (Class 3 The value of percent of control at 10^−7 M was more than 60% or the value of IC50 was more than 200 nM.).

`COc1cc(CN[C@H]2CC[C@@H](Nc3nccc(N(C)C)n3)CC2)ccc1O` [compound 1241]: the class under setting [2] is 3 (Class 3 The value of percent of control at 10^−7 M was more than 60% or the value of IC50 was more than 200 nM.).

On to `CN(C)c1nc(N[C@H]2CC[C@@H](CNCCCCCCCCc3ccccc3)CC2)nc2c1CCCC2` [compound 1502], for which, under setting [2], the class is listed as 3 (Class 3 The value of percent of control at 10^−7 M was more than 60% or the value of IC50 was more than 200 nM.).

As to `CN(C)c1cc(N[C@H]2CC[C@@H](NC(=O)Cc3ccc(F)cc3)CC2)nc2ccccc12` [compound 68], under setting [1], the class is on record as 3 (Class 3 The value of percent of control at 10^−7 M was more than 60% or the value of IC50 was more than 200 nM.).

`COc1ccc(CNC[C@H]2CC[C@@H](Nc3nccc(N(C)C)n3)CC2)cc1OC` [compound 1314]: the class under setting [2] is 2 (Class 2: The value of percent of control at 10^−7 M was from 40% to 60% or the value of IC′50 was from 50 nM to 200 nM.).

Turning to `CCC(Oc1ccccc1)C(=O)NC[C@H]1CC[C@@H](Nc2nccc(N(C)C)n2)CC1` (relative stereo) [compound 393, N-[(cis-4-{[4-(dimethylamino)pyrimidin-2-yl]amino}cyclohexyl)methyl]-2-phenoxybutanamide], the class under setting [2] is 2 (Class 2: The value of percent of control at 10^−7 M was from 40% to 60% or the value of IC′50 was from 50 nM to 200 nM.).

In the case of `Cc1cc(CN[C@H]2CC[C@@H](Nc3nccc(N(C)C)n3)CC2)c(C)n1-c1ccccc1` [compound 1230], the class under setting [2] was 3 (Class 3 The value of percent of control at 10^−7 M was more than 60% or the value of IC50 was more than 200 nM.).

For the compound `CCOc1ccc(OCC)c(CNC[C@H]2CC[C@@H](Nc3nccc(N(C)C)n3)CC2)c1` [compound 1290], the class under setting [2] is recorded as 1 (Class 1: The value of percent of control at 10^−7 M was less than 40% or the value of IC50 was less than 50 nM.).
